Measured values as given in patent US10899753B2, “Inhibiting agents for Bruton's tyrosine kinase” (BIOGEN MA INC., priority 2018, dated 2021).

Assays:
BTK [1] = molecular target: T1, BTK (Homo sapiens (Human), UniProt Q06187); experiment: In Vitro PD Assay in Human Whole Blood (pBTK assay); type: cell-based; settings: human heparinized whole blood, 37° C. for 30 min, total BTK capture and phosphotyrosine detection (ECL)
Protocol: In Vitro PD Assay in Human Whole Blood
Human heparinized venous blood was purchased from Bioreclamation, Inc. or SeraCare Life Sciences and shipped overnight. Whole blood was aliquoted into 96-well plate and “spiked” with serial dilutions of test compound in DMSO or with DMSO without drug. The final concentration of DMSO in all wells was 0.1%. The plate was incubated at 37° C. for 30 min. Lysis buffer containing protease and phosphatase inhibitors was added to the drug-containing samples and one of the DMSO-only samples (+PPi, high control), while lysis buffer containing protease inhibitors was added to the other DMSO-only samples (−PPi, low control). All of the lysed whole blood samples were subjected to the total BTK capture and phosphotyrosine detection method described in US20160311802, incorporated herein by reference.

BTK [2] = molecular target: T1, BTK; experiment: In Vitro BTK Kinase Assay: BTK-POLYGAT-LS ASSAY; type: biochemical; settings: fluorescein-labeled polyGAT peptide 100 nM, BTK enzyme 0.25 nM, 30 minutes, TRF
Protocol: In Vitro BTK Kinase Assay: BTK-POLYGAT-LS ASSAY
The purpose of the BTK in vitro assay is to determine compound potency against BTK through the measurement of IC50. […] For a typical assay, a […] aliquot of a ATP/peptide master mix (final concentration; ATP […], polyGAT 100 nM) in kinase buffer (10 mM Tris-HCl pH 7.5, 10 mM MgCl2, 200 μM Na3PO4, 5 mM DTT, 0.01% Triton X-100, and 0.2 mg/ml casein) is added to each well. […] The assay is incubated for 30 minutes before being stopped with 28 μL of a 50 mM EDTA solution. […] The plate is covered and incubated for 45 minutes at room temperature. Time resolved fluorescence (TRF) on Molecular Devices M5 (332 nm excitation; 488 nm emission; 518 nm fluorescein emission) is measured.

T1 sequence (Q06187 whole entry): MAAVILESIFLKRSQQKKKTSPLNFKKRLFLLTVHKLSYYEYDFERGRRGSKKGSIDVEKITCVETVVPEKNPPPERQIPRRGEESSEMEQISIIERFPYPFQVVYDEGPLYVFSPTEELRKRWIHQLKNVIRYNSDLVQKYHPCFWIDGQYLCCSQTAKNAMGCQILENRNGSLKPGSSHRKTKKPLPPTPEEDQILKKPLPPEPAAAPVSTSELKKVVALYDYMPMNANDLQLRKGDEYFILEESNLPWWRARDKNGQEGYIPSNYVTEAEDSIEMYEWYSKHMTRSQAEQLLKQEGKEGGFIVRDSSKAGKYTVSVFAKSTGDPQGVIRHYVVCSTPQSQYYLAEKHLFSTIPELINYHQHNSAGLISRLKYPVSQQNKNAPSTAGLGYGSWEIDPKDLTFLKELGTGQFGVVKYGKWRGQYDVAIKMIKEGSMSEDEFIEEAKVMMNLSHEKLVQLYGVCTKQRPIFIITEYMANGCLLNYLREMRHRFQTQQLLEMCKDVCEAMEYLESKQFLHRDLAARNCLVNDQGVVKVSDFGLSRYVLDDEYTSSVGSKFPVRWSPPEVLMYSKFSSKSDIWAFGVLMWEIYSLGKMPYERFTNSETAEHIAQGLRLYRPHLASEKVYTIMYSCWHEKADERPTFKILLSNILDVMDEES

SMILES | IC50 (BTK [1]) [nM] | IC50 (BTK [2]) [nM]
Cc1c(CNC(=O)c2noc(C(C)(C)C)n2)ccc(-c2ncnc(Nc3cnn(C)c3)n2)c1F [Compound 13, 5-(tert-butyl)-N-(3-fluoro-2-methyl-4-(4-((1-methyl-1H-pyrazol-4-yl)amino)-1,3,5-triazin-2-yl)benzyl)-1,2,4-oxadiazole-3-carboxamide] | < 100 | < 1
Cc1c(CNC(=O)c2nc(C(C)(C)C)no2)ccc(-c2ncnc(Nc3cnn(C)c3)n2)c1F [Compound 14, 3-(tert-butyl)-N-(3-fluoro-2-methyl-4-(4-((1-methyl-1H-pyrazol-4-yl)amino)-1,3,5-triazin-2-yl)benzyl)-1,2,4-oxadiazole-5-carboxamide] | < 100 | < 1
Cn1cc(Nc2ncnc(-c3ccc(CNC(=O)c4noc(C(C)(C)C)n4)c(Cl)c3)n2)cn1 [Compound 15, 5-(tert-butyl)-N-(2-chloro-4-(4-((1-methyl-1H-pyrazol-4-yl)amino)-1,3,5-triazin-2-yl)benzyl)-1,2,4-oxadiazole-3-carboxamide] | 100 to 500 | < 1
Cn1cc(Nc2ncnc(-c3ccc(CNC(=O)c4nc(C(C)(C)C)no4)c(Cl)c3)n2)cn1 [Compound 16, 3-(tert-butyl)-N-(2-chloro-4-(4-((1-methyl-1H-pyrazol-4-yl)amino)-1,3,5-triazin-2-yl)benzyl)-1,2,4-oxadiazole-5-carboxamide] | 100 to 500 | < 1
Cn1cc(Nc2ncnc(-c3ccc(CNC(=O)c4noc(C(C)(C)C)n4)c(C(F)(F)F)c3)n2)cn1 [Compound 17, 5-(tert-butyl)-N-(4-(4-((1-methyl-1H-pyrazol-4-yl)amino)-1,3,5-triazin-2-yl)-2-(trifluoromethyl)benzyl)-1,2,4-oxadiazole-3-carboxamide] | 100 to 500 | < 1
Cn1ccc(Nc2ncnc(-c3ccc(CNC(=O)c4nc(C(C)(C)C)no4)c(C(F)(F)F)c3F)n2)n1 [Compound 20, 3-(tert-butyl)-N-(3-fluoro-4-(4-((1-methyl-1H-pyrazol-3-yl)amino)-1,3,5-triazin-2-yl)-2-(trifluoromethyl)benzyl)-1,2,4-oxadiazole-5-carboxamide] | 500 to 10000 | < 1
Cn1ccc(Nc2ncnc(-c3ccc(CNC(=O)c4noc(C(C)(C)C)n4)c(Cl)c3F)n2)n1 [Compound 21, 5-(tert-butyl)-N-(2-chloro-3-fluoro-4-(4-((1-methyl-1H-pyrazol-3-yl)amino)-1,3,5-triazin-2-yl)benzyl)-1,2,4-oxadiazole-3-carboxamide] | 100 to 500 | < 1
Cn1ccc(Nc2ncnc(-c3ccc(CNC(=O)c4nc(C(C)(C)C)no4)c(Cl)c3F)n2)n1 [Compound 22, 3-(tert-butyl)-N-(2-chloro-3-fluoro-4-(4-((1-methyl-1H-pyrazol-3-yl)amino)-1,3,5-triazin-2-yl)benzyl)-1,2,4-oxadiazole-5-carboxamide] | 500 to 10000 | < 1
Cn1ccc(Nc2ncnc(-c3ccc4c(c3)CCCC[C@H]4NC(=O)c3noc(C(C)(C)C)n3)n2)n1 [Compound 23, 5-tert-butyl-N-[(5R)-2-[4-[(1-methylpyrazol-3-yl)amino]-1,3,5-triazin-2-yl]-6,7,8,9-tetrahydro-5H-benzo[7]annulen-5-yl]-1,2,4-oxadiazole-3-carboxamide] | 100 to 500 | < 1
Cc1c(CNC(=O)c2nn(C(C)(C)C)cc2F)ccc(-c2ncnc(Nc3cnn(C)c3)n2)c1F [Compound 27, 1-(tert-butyl)-4-fluoro-N-(3-fluoro-2-methyl-4-(4-((1-methyl-1H-pyrazol-4-yl)amino)-1,3,5-triazin-2-yl)benzyl)-1H-pyrazole-3-carboxamide] | 100 to 500 | < 1
Cn1cc(Nc2ncnc(-c3ccc(CNC(=O)c4noc(C(C)(C)C)n4)c(Cl)c3F)n2)cn1 [Compound 28, 5-(tert-butyl)-N-(2-chloro-3-fluoro-4-(4-((1-methyl-1H-pyrazol-4-yl)amino)-1,3,5-triazin-2-yl)benzyl)-1,2,4-oxadiazole-3-carboxamide] | < 100 | < 1
Cn1cc(Nc2ncnc(-c3ccc(CNC(=O)c4nc(C(C)(C)C)no4)c(Cl)c3F)n2)cn1 [Compound 29, 3-(tert-butyl)-N-(2-chloro-3-fluoro-4-(4-((1-methyl-1H-pyrazol-4-yl)amino)-1,3,5-triazin-2-yl)benzyl)-1,2,4-oxadiazole-5-carboxamide] | < 100 | < 1
Cn1cc(Nc2ncnc(-c3ccc(CNC(=O)c4noc(C5(C)CC5)n4)c(Cl)c3F)n2)cn1 [Compound 30, N-(2-chloro-3-fluoro-4-(4-((1-methyl-1H-pyrazol-4-yl)amino)-1,3,5-triazin-2-yl)benzyl)-5-(1-methylcyclopropyl)-1,2,4-oxadiazole-3-carboxamide] | < 100 | < 1
Cc1c(CNC(=O)c2ncc(C(C)(C)C)o2)ccc(-c2ncnc(Nc3cnn(C)c3)n2)c1F [Compound 31, 5-(tert-butyl)-N-(3-fluoro-2-methyl-4-(4-((1-methyl-1H-pyrazol-4-yl)amino)-1,3,5-triazin-2-yl)benzyl)oxazole-2-carboxamide] | 500 to 10000 | < 1
Cc1c(CNC(=O)c2noc(C3(C)CC3)n2)ccc(-c2ncnc(Nc3cnn(C)c3)n2)c1F [Compound 32, N-(3-fluoro-2-methyl-4-(4-((1-methyl-1H-pyrazol-4-yl)amino)-1,3,5-triazin-2-yl)benzyl)-5-(1-methylcyclopropyl)-1,2,4-oxadiazole-3-carboxamide] | < 100 | < 1
Cn1cc(Nc2ncnc(-c3ccc4c(c3)CCCC[C@H]4NC(=O)c3noc(C(C)(C)C)n3)n2)cn1 [Compound 33, 5-tert-butyl-N-[(5R)-2-[4-[(1-methylpyrazol-4-yl)amino]-1,3,5-triazin-2-yl]-6,7,8,9-tetrahydro-5H-benzo[7]annulen-5-yl]-1,2,4-oxadiazole-3-carboxamide] | < 100 | < 1
Cn1cc(Nc2ncnc(-c3ccc4c(c3)CCCC[C@H]4NC(=O)c3nc(C(C)(C)C)no3)n2)cn1 [Compound 34, 3-tert-butyl-N-[(5R)-2-[4-[(1-methylpyrazol-4-yl)amino]-1,3,5-triazin-2-yl]-6,7,8,9-tetrahydro-5H-benzo[7]annulen-5-yl]-1,2,4-oxadiazole-5-carboxamide] | < 100 | < 1
Cn1cc(Nc2ncnc(-c3ccc4c(c3)CCCC[C@H]4NC(=O)c3cnc(C(C)(C)C)o3)n2)cn1 [Compound 35, 2-tert-butyl-N-[(5R)-2-[4-[(1-methylpyrazol-4-yl)amino]-1,3,5-triazin-2-yl]-6,7,8,9-tetrahydro-5H-benzo[7]annulen-5-yl]-oxazole-5-carboxamide] | 100 to 500 | < 1
Cc1c(CNC(=O)c2cnn(C(C)(C)C)c2)ccc(-c2ncnc(Nc3cnn(C)c3)n2)c1F [Compound 36, 1-(tert-butyl)-N-(3-fluoro-2-methyl-4-(4-((1-methyl-1H-pyrazol-4-yl)amino)-1,3,5-triazin-2-yl)benzyl)-1H-pyrazole-4-carboxamide] | 100 to 500 | < 1
Cc1cc(-c2ncnc(Nc3cnn(C)c3)n2)ccc1CNC(=O)c1cnn(C(C)(C)C)c1 [Compound 37, 1-(tert-butyl)-N-(2-methyl-4-(4-((1-methyl-1H-pyrazol-4-yl)amino)-1,3,5-triazin-2-yl)benzyl)-1H-pyrazole-4-carboxamide] | 100 to 500 | < 1
Cc1cc(-c2ncnc(Nc3cnn(C)c3)n2)ccc1CNC(=O)c1nnn(C(C)(C)C)n1 [Compound 39, 2-(tert-butyl)-N-(2-methyl-4-(4-((1-methyl-1H-pyrazol-4-yl)amino)-1,3,5-triazin-2-yl)benzyl)-2H-tetrazole-5-carboxamide] | < 100 | < 1
Cc1cc(-c2ncnc(Nc3cnn(C)c3)n2)ccc1CNC(=O)c1noc(C2(C)CC2)n1 [Compound 40, N-(2-methyl-4-(4-((1-methyl-1H-pyrazol-4-yl)amino)-1,3,5-triazin-2-yl)benzyl)-5-(1-methylcyclopropyl)-1,2,4-oxadiazole-3-carboxamide] | 100 to 500 | < 1
Cc1cc(-c2ncnc(Nc3ccn(C)n3)n2)ccc1CNC(=O)c1cc(C(C)(C)C)on1 [Compound 42, 5-(tert-butyl)-N-(2-methyl-4-(4-((1-methyl-1H-pyrazol-3-yl)amino)-1,3,5-triazin-2-yl)benzyl)isoxazole-3-carboxamide] | 500 to 10000 | 1 to 10
Cc1cc(-c2ncnc(Nc3ccn(C)n3)n2)ccc1CNC(=O)c1cc(C(C)(C)C)no1 [Compound 43, 3-(tert-butyl)-N-(2-methyl-4-(4-((1-methyl-1H-pyrazol-3-yl)amino)-1,3,5-triazin-2-yl)benzyl)isoxazole-5-carboxamide] | 500 to 10000 | 1 to 10
